Data on two molecules can be found in patent US11433136B2, “Polyacetal polymers, conjugates, particles and uses thereof” (THE GENERAL HOSPITAL CORPORATION, priority 2015, dated 2022).

The test system of the data set is PAN02 tumors. Put plainly: Orthotopic PAN02 pancreatic (PDAC) tumors in lean and obese mice. The data set is classed as in vivo, mice (C57BL/6). The protocol:
Diet started at six weeks of age, continued for ten weeks (C57BL/6 and FVB), at which time tumors were implanted, and then continued until the end of experiments. In the spontaneous tumor models, diets were administered until tumor collection. Mice genetically deficient for leptin (ob/ob) on a standard chow for seven weeks gained weight compared to age matched WT mice (n=8-10/group for C57Bl/6, FVB and ob/ob, 4-10/group for KPC, 7-21/group for iKRAS). Left bars represent mice fed a low-fat diet, right bars represent mice fed a high fat diet for all groups except C57/B6 on the far right of the graph, in which the right bar represents the ob/ob mice. […] PAN02 and AK4.4 syngeneic tumors were orthotopically implanted in C57BL/6 and FVB mice respectively at ten weeks of diet (lean diet, left bars; and obese diet or ob/ob mice, right bars); ob/ob mice were implanted with PAN02 tumors at seven weeks of age. Tumors were collected 21 days later. Obese animals presented with higher tumor weights than lean counterparts in all models (n=8-10/group). FIG. 7D is representative images of mesenteric peritoneal dissemination in lean and obese mice implanted with PAN02 tumors. Mesenteries collected at the same time as tumors in FIG. 7C. FIG. 7E is a graph showing the quantification of mesenteric peritoneal metastasis in the PAN02 model. FIG. 7F is a graph showing the quantification of retro-peritoneal metastasis in the AK4.4 model. Data are shown as mean±standard error of the mean (SEM). P values were determined by the Student t-test. *, P<0.05; **, P<0.01; ***, P<0.001.
FIG. 9A is representative pictures of CD31(+) vessels and lectin in PAN02 tumors. Scale bars: 200 μm. FIG. 9B is a graph showing the quantification of the total (CD31+) and lectin-positive (CD31/lectin+) vessel area in PAN02 tumors. Obese mice (right bars) presented with decreased perfusion (n=3-6 tumors/group) compared to lean mice (left bars). […] Obese mice presented with increased hypoxia in tumors. […] 5-FU quantified via high performance liquid chromatography (HPLC). […] PAN02 tumors were orthotopically implanted at ten weeks of diet, treatments were initiated at day seven post-implantation and tumors resected at day 19. […] Data are shown as mean±SEM. P values were determined by the Student t-test unless otherwise stated. *, P<0.05; **, P<0.01
Expression of genes associated with AT-1 pathway activation and fibrosis/desmoplasia is increased in PAN02 (FIG. 10A) and AK4.4 (FIG. 10B) tumors from obese mice (right bars) in comparison to lean mice (left bars). […] Data normalized to lean group. 3-4 samples per group pooled in one single PCR array fibrosis gene set plate. […] Of note, similar to αSMA, the changes of AT1, as well as other desmoplasia related markers, were relatively mild in the lean setting. […] Data are shown as mean±SEM with the exception of FIGS. 10A and 10B. P values were determined by the Student t-test unless otherwise stated. *, P<0.05; **, P<0.01, ***p<0.001.
Obesity promoted infiltration of myeloid Gr-1(+)F4/80(−) cell population in PAN02 tumors in obese mice. FIG. 11B is a quantification normalized by total viable cells (i) or total CD45 leucocytes (ii) (n=4-6 tumors/group). FIG. 11C is representative FACS scatter plots of CD45(+)CD11b(+)Ly6G(+) tumor associated neutrophils (TANs), CD8(+) cytotoxic lymphocytes and CD4(+)CD25(+) regulatory T cells in PAN02 tumors in lean and obese setting. […] Obese promoted an increase in TANs and a decrease in CD8 cells in PAN02 tumors. A strong tendency for increased Tregs was also observed. […] Scale bars: 1 mm (whole tumors) and 100 μm (caption). […] (n=4-6 tumors/group). For bar graphs in FIGS. 11A, 11B, 11D, and 11E, left bars represent lean mice, and right bars represent obese mice. For the bar graph in FIG. 11J, left bars represent obese mice, and right bars represent obese mice with TAN depletion. Data are shown as mean±SEM. […]

Take `O=c1[nH]cc(F)c(=O)[nH]1` [Example 5-FU, 5-fluorouracil]: under “obese vs lean mice”, the “delivery of chemotherapy to tumors, 5-FU quantified via HPLC” value is on record as “decreased delivery”. The “response to chemotherapy (tumor growth)” value (obese vs lean, treatment from day 7, tumors resected day 19) is “less effective in preventing PAN02 tumor growth in obese animals than in lean”.

On to `CCCCc1nc(Cl)c(CO)n1Cc1ccc(-c2ccccc2-c2nn[nH]n2)cc1` [losartan], for which the “response to chemotherapy with AT1 blockade” value (losartan with 5-FU, lean and obese) is reported as “improved response to chemotherapy in obese, but not in lean animals”. Where the note is “obese and lean”, the “tumor αSMA protein expression” value is “tendency for reduced tumor αSMA protein expression in obese but not lean setting”. In addition, for the setting “obese but not lean mice”, the “chemotherapy delivery to tumors” value is reported as “increase chemotherapy delivery” and the tumor perfusion result is “tended to improve perfusion”. The “cytokine expression in tumors (multiplex protein)” value (obese mice) is on record as “reduced the expression of multiple cytokines including IL-1”.
